From publication PMC6825221, “In silico re-engineering of a neurotransmitter to activate KCNQ potassium channels in an isoform-specific manner” (Communications Biology, 2019) come the findings set out here.

What all share (format): cell-based
For experiment [1], the target named is KCNQ2 (Homo sapiens, UniProt O43526). Briefly: TEVC of homomeric KCNQ2 expressed in Xenopus oocytes. The source says:
We generated cRNA transcripts encoding human KCNQ1, KCNQ2, KCNQ3, KCNQ4, KCNQ5 or GLRA1 (NM_001146040) (GenScript, Piscataway, NJ, USA) by in vitro transcription using the T7 polymerase mMessage mMachine kit (Thermo Fisher Scientific), after vector linearization, from cDNA sub-cloned into plasmids incorporating Xenopus laevis β-globin 5′ and 3′ UTRs flanking the coding region to enhance translation and cRNA stability. We quantified cRNA by spectrophotometry. […] We injected defolliculated stage V and VI Xenopus laevis oocytes (Ecocyte Bioscience, Austin, TX and Xenoocyte, Dexter, MI) with KCNQ channel α subunit (5-20 ng) or GLRA1 (20 ng) cRNAs. We incubated the oocytes at 16 °C in Barth’s saline solution (Ecocyte Bioscience) containing penicillin and streptomycin, with daily washing, for 2–5 days prior to two-electrode voltage-clamp (TEVC) recording.
(§1) For recording, oocytes were placed in a small-volume oocyte bath (Warner) and viewed them with a dissection microscope. Chemicals were sourced from Sigma, Matrix Scientific and Santa Cruz. […] All stock solutions were diluted in bath solution on the day of experiments. KCNQ2/3 channel activation was screened for using either 30 µM or 100 µM concentrations of each of the six compounds, then dose responses were conducted as appropriate. Bath solution was (in mM): 96 NaCl, 4 KCl, 1 MgCl2, 1 CaCl2, 10 HEPES (pH 7.6). Compounds were introduced into the oocyte recording bath by gravity perfusion at a constant flow of 1 ml per minute for 3 min prior to recording. Pipettes were of 1–2 MΩ resistance when filled with 3 M KCl. Currents were recorded in response to voltage pulses between −120 or −80 mV and + 40 mV at 20 mV intervals from a holding potential of −80 mV, to yield current-voltage relationships, current magnitude, and for quantifying activation rate. We analyzed data using Clampfit (Molecular Devices) and Graphpad Prism software (GraphPad, San Diego, CA, USA); values are stated as mean ± SEM. We plotted raw or normalized tail currents versus prepulse voltage and fitted with a single Boltzmann function:1 g=(A1−A2)/1+exp(V12−V)∕VS+A2, where g is the normalized tail conductance, A1 is the initial value at −∞, A2 is the final value at +∞, V1/2 is the half-maximal voltage of activation and Vs the slope factor. Activation, deactivation, wash-in and washout kinetics were fitted with single exponential functions to yield a τ value.

The target in experiment [2] is KCNQ3* (Homo sapiens, UniProt O43525, A315T). In words: TEVC of homomeric KCNQ3* (A315T KCNQ3 mutant) expressed in Xenopus oocytes.
Description: We next validated the in silico predictions using two-electrode voltage clamp of homomeric neuronal KCNQ2-5 channel isoforms expressed in Xenopus laevis oocytes. […] As in previous studies[8],[10], we used the A315T KCNQ3 mutant (KCNQ3*) that ensures large enough currents to accurately quantify voltage dependence and pharmacology of homomeric KCNQ3[16].
(§2) We generated cRNA transcripts encoding human KCNQ1, KCNQ2, KCNQ3, KCNQ4, KCNQ5 or GLRA1 (NM_001146040) (GenScript, Piscataway, NJ, USA) by in vitro transcription using the T7 polymerase mMessage mMachine kit (Thermo Fisher Scientific), after vector linearization, from cDNA sub-cloned into plasmids incorporating Xenopus laevis β-globin 5′ and 3′ UTRs flanking the coding region to enhance translation and cRNA stability. We quantified cRNA by spectrophotometry. We generated mutant KCNQ2 and KCNQ3 cDNAs by site-directed mutagenesis using a QuikChange kit (Stratagene, San Diego, CA) and prepared the corresponding cRNAs as above. We injected defolliculated stage V and VI Xenopus laevis oocytes (Ecocyte Bioscience, Austin, TX and Xenoocyte, Dexter, MI) with KCNQ channel α subunit (5-20 ng) or GLRA1 (20 ng) cRNAs. We incubated the oocytes at 16 °C in Barth’s saline solution (Ecocyte Bioscience) containing penicillin and streptomycin, with daily washing, for 2–5 days prior to two-electrode voltage-clamp (TEVC) recording.
as §1, with “We performed TEVC at room temperature using an OC-725C amplifier (Warner Instruments, Hamden, CT) and pClamp10 software (Molecular Devices, Sunnyvale, CA) 2–5 days after cRNA injection as described in the section above. For” for “For”, “We plotted raw or normalized tail currents versus prepulse voltage and fitted with a single Boltzmann function:1 g=(A1−A2)/1+exp(V12−V)∕VS+A2, where g is the normalized tail conductance, A1 is the initial value at −∞, A2 is the final value at +∞, V1/2 is the half-maximal voltage of activation and Vs the slope factor. Activation, deactivation, wash-in and washout kinetics were fitted with single exponential functions to yield a τ value.” left out

Experiment [3] concerns the target KCNQ5 (Homo sapiens, UniProt Q9NR82). In words: TEVC of homomeric KCNQ5 expressed in Xenopus oocytes. The settings on record: read-out: EC50, KCNQ5 activation.
Description: as §2
We performed TEVC at room temperature using an OC-725C amplifier (Warner Instruments, Hamden, CT) and pClamp10 software (Molecular Devices, Sunnyvale, CA) 2–5 days after cRNA injection as described in the section above. For recording, oocytes were placed in a small-volume oocyte bath (Warner) and viewed them with a dissection microscope. Chemicals were sourced from Sigma, Matrix Scientific and Santa Cruz. […] All stock solutions were diluted in bath solution on the day of experiments. KCNQ2/3 channel activation was screened for using either 30 µM or 100 µM concentrations of each of the six compounds, then dose responses were conducted as appropriate. […] Currents were recorded in response to voltage pulses between −120 or −80 mV and + 40 mV at 20 mV intervals from a holding potential of −80 mV, to yield current-voltage relationships, current magnitude, and for quantifying activation rate. We analyzed data using Clampfit (Molecular Devices) and Graphpad Prism software (GraphPad, San Diego, CA, USA); values are stated as mean ± SEM. […]

The term EC50 denotes the concentration at which the effect is half-maximal. Turning to `CS(=O)(=O)N(CC(=O)O)c1cccc(F)c1` [3FMSG], the “effect of a tenfold excess (100 µM) on KCNQ2 activation by 2FPG (10 µM)” value in experiment [1] is given as “subtly reduced the efficacy of 2FPG”. The “effects on KCNQ2” value in experiment [1] (dose response) is “negligible or much less potent effects”. In experiment [2] (100 µM), the “KCNQ3* activation and deactivation rates” value was “speeded activation and slowed deactivation”. The concentration for a half-maximal effect (EC50) was 18 ± 12 nM in experiment [2] (ΔV0.5act, read-out: EC50, KCNQ3* activation) and 171 ± 112 nM in experiment [3].
